Biological target: T1, neuropilin 1 (Nrp1) (Mus musculus, UniProt P97333)
T1 construct: a1a2 domain (residues 23−269), His6-tag, pCold-ProS2 vector, E. coli
T1 sequence (P97333 23-269): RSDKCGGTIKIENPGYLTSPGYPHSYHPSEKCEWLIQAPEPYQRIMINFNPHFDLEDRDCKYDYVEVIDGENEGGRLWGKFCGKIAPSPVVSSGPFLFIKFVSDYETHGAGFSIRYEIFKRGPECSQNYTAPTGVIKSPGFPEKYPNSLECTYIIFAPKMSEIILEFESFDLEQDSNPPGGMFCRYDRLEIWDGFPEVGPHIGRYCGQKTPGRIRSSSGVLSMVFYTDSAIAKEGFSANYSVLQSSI
Test: quantitative fluorescent dot-blot saturation binding to purified a1a2

d4t,8t-NBD-Ceramide
Kd: 114 ± 5 nM
